Reference: patent US12679827B2, “Pyrimidine compounds and their pharmaceutical uses” (National Health Research Institutes, priority 2020, dated 2026)
pIC50: −log10 of the molar value.

Assays:
[1] = test system: NCI-H446; test: Small-cell-lung cancer cell proliferation inhibition assay (PrestoBlue), NCI-H446; format: cell-based; conditions: Homo sapiens, cMYC amplified SCLC cells, 72 hours
Procedure: (§1) Small cell lung cancer cells NCI-H82 (ATCC HTB-175, cMYC amplified), NCI-H446 (ATCC® HTB-171, cMYC amplified), and NCI-H69 (ATCC® HTB-119, MYCN amplified) were seeded at the density of 5000-10000 cells per well in 96-well plates. After 24 hours, the cancer cells were treated with each compound at various concentrations (0-10 μM) and then incubated for another 72 hours. IC50 values were computed based on duplicated 8-point titration.

[2] = test system: NCI-H82; test: Small-cell-lung cancer cell proliferation inhibition assay (PrestoBlue), NCI-H82; format: cell-based; conditions: Homo sapiens, cMYC amplified SCLC cells, 72 hours
Procedure: as §1

[3] = target: T1, human Aurora A (amino acids 123-401) (Homo sapiens, UniProt O14965); test: Kinase-Glo Luminescent Kinase assay, in vitro inhibition of Aurora A kinase activity; format: biochemical; conditions: recombinant GST-tagged Aurora A, 5.0 μM ATP, 37° C., 120 minutes
T1 construct: human Aurora A (amino acids 123-401) was expressed in Sf9 insect cells; GST; made in house; host or cells: Sf9 insect cells
T1 sequence (O14965 123-401): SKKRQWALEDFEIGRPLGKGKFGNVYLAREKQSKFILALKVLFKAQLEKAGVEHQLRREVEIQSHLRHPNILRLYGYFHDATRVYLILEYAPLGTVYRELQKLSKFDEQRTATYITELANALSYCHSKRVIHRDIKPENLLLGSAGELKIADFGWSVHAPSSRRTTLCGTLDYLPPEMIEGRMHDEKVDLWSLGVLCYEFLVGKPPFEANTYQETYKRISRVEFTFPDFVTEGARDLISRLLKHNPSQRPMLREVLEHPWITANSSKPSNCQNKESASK
Procedure: Recombinant glutathione S-transferase (GST)-tagged N-terminal truncated human Aurora A (amino acids 123-401) was expressed in Sf9 insect cells and then purified by glutathione affinity chromatography to afford recombinant Aurora A. Recombinant Aurora A (150 ng) was reacted with each test compound (100 nM) in 50 μL of 50 mM Tris-HCl pH 7.4, 10 mM NaCl, 10 mM MgCl2, 0.01% bovine serum albumin, 5.0 μM ATP, 1 mM dithiothreitol, 15 μM tetra(-LRRASLG) peptide at 37° C. for 120 minutes. Then, to the reaction was added 50 μL of Kinase-Glo Plus Reagent. The resulting mixture was incubated at 25° C. for 20 minutes. A 70 μL aliquot of the mixture was transferred to a black microliter plate. Luminescence was measured using a Wallac Vector 1420 multilabel counter (PerkinElmer, USA).

Cc1cc(Nc2cc(N3CC[C@H](N(C)C)C3)nc(N[C@H]3CCN(C(=O)c4cccc(Cl)c4F)C3)n2)n[nH]1 [Compound 22]
pIC50 [1]: > 6.00
pIC50 [2]: > 6.00
pIC50 [3]: > 7.00

COCCN(C)c1cc(Nc2cc(C)[nH]n2)nc(NC2CCN(C(=O)c3cccc(Cl)c3F)CC2)n1 [Compound 98]
pIC50 [1]: > 6.00
pIC50 [2]: > 6.00

Cc1cc(Nc2cc(C)[nH]n2)nc(NC2CCN(Cc3cccc(Cl)c3F)CC2)n1 [Compound 119]
pIC50 [3]: > 7.00

Cc1cc(Nc2cc(C)[nH]n2)nc(N(C)C2CCN(Cc3cccc(Cl)c3F)CC2)n1 [Compound 111]
pIC50 [3]: > 7.00

COCCN(C)c1cc(Nc2cc(C)[nH]n2)nc(N[C@H]2CCN(C(=O)c3ccc(Cl)cc3F)C2)n1 [Compound 17]
pIC50 [1]: > 6.00
pIC50 [2]: > 6.00
pIC50 [3]: > 7.00

Cc1cc(Nc2cc(N3CCN(C)CC3)nc(N[C@H]3CCN(C(=O)c4cccc(Cl)c4F)C3)n2)n[nH]1 [Compound 35]
pIC50 [1]: > 6.00
pIC50 [2]: > 6.00
pIC50 [3]: > 7.00

CCN1CCN(c2cc(Nc3cc(C)[nH]n3)nc(N[C@H]3CCN(S(=O)(=O)c4ccc(Cl)cc4C)C3)n2)CC1 [Compound 62]
pIC50 [1]: > 6.00
pIC50 [2]: > 6.00
pIC50 [3]: > 7.00

CCN1CCN(c2cc(Nc3cc(C)[nH]n3)nc(N[C@H]3CCN(C(=O)c4nc(Cl)ccc4F)C3)n2)CC1 [Compound 50]
pIC50 [1]: > 6.00
pIC50 [2]: > 6.00
pIC50 [3]: > 7.00

Cc1cc(Nc2cc(N3CC(N(C)C)C3)nc(N[C@H]3CCN(C(=O)c4ccc(Cl)cc4F)C3)n2)n[nH]1 [Compound 8]
pIC50 [1]: > 6.00
pIC50 [2]: > 6.00
pIC50 [3]: > 7.00

CCN1CCN(c2cc(Nc3cc(C)[nH]n3)nc(N[C@H]3CCN(C(=O)c4cc(Cl)ccc4F)C3)n2)CC1 [Compound 37]
pIC50 [1]: > 6.00
pIC50 [2]: > 6.00
pIC50 [3]: > 7.00

CCN1CCN(c2cc(Nc3cc(C)[nH]n3)nc(N[C@H]3CCN(C(=O)c4ccc(Cl)c(F)c4)C3)n2)CC1 [Compound 39]
pIC50 [1]: > 6.00
pIC50 [2]: > 6.00
pIC50 [3]: > 7.00

CCCC(=O)n1nc(C)cc1Nc1cc(N2CCN(CC)CC2)nc(NC2CCN(C(=O)c3cccc(Cl)c3F)CC2)n1 [Compound 125]
pIC50 [1]: > 6.00
pIC50 [2]: > 6.00

CCN1CCN(c2cc(Nc3cc(C)[nH]n3)nc(NC3CCN(C(=O)c4cccc(Cl)c4F)C3)n2)CC1 (centres unmarked) [Compound 58]
pIC50 [3]: > 7.00

CCN1CCN(c2cc(Nc3cc(C)nn3C(C)=O)nc(N[C@H]3CCN(C(=O)c4ccc(Cl)cc4F)C3)n2)CC1 [Compound 70]
pIC50 [1]: > 6.00
pIC50 [2]: > 6.00

Cc1cc(Nc2ccnc(NC3CCN(C(=O)c4cccc(Cl)c4Cl)CC3)n2)n[nH]1 [Compound 118]
pIC50 [3]: > 7.00

Cc1cc(Nc2nccs2)nc(N(C)C2CCN(Cc3cccc(Cl)c3F)CC2)n1 [Compound 115]
pIC50 [3]: > 7.00

COC[C@@H]1CCCN1c1cc(Nc2cc(C)[nH]n2)nc(N[C@H]2CCN(C(=O)c3cccc(Cl)c3F)C2)n1 [Compound 23]
pIC50 [3]: > 7.00

Cc1cc(Nc2cc(N3CC(N(C)C)C3)nc(NC3CCN(C(=O)c4cccc(Cl)c4F)CC3)n2)n[nH]1 [Compound 89]
pIC50 [1]: > 6.00
pIC50 [2]: > 6.00
pIC50 [3]: > 7.00

COC[C@H]1CCCN1c1cc(Nc2cc(C)[nH]n2)nc(N[C@H]2CCN(C(=O)c3cccc(Cl)c3F)C2)n1 [Compound 24]
pIC50 [3]: > 7.00

CCN1CCN(c2cc(Nc3cc(C)[nH]n3)nc(N[C@H]3CCN(C(=O)c4ccc(Cl)c(C(F)(F)F)c4)C3)n2)CC1 [Compound 49]
pIC50 [1]: > 6.00
pIC50 [2]: > 6.00
pIC50 [3]: > 7.00

CCN1CCN(c2cc(Nc3cc(C)[nH]n3)nc(N[C@H]3CCN(S(=O)(=O)c4cccc(Cl)c4F)C3)n2)CC1 [Compound 65]
pIC50 [1]: > 6.00
pIC50 [2]: > 6.00
pIC50 [3]: > 7.00

CCN1CCN(c2cc(Nc3cc(C)[nH]n3)nc(N[C@H]3CCN(Cc4cccc(Cl)c4F)C3)n2)CC1 [Compound 31]
pIC50 [1]: > 6.00
pIC50 [2]: > 6.00
pIC50 [3]: > 7.00

CCN1CCN(c2cc(Nc3cc(C)[nH]n3)nc(N[C@H]3CCN(C(=O)c4cccc(C(F)(F)F)c4F)C3)n2)CC1 [Compound 48]
pIC50 [1]: > 6.00
pIC50 [2]: > 6.00
pIC50 [3]: > 7.00

COC1CN(c2cc(Nc3cc(C)[nH]n3)nc(N[C@H]3CCN(C(=O)c4ccc(Cl)cc4F)C3)n2)C1 [Compound 19]
pIC50 [1]: > 6.00
pIC50 [2]: > 6.00
pIC50 [3]: > 7.00

CC(=O)N1CCN(c2cc(Nc3cc(C)[nH]n3)nc(N[C@H]3CCN(C(=O)c4ccc(Cl)cc4F)C3)n2)CC1 [Compound 12]
pIC50 [1]: > 6.00
pIC50 [2]: > 6.00
pIC50 [3]: > 7.00

Cc1cc(Nc2cc(N3CC(N(C)C)C3)nc(N[C@H]3CCN(C(=O)c4cccc(Cl)c4F)C3)n2)n[nH]1 [Compound 25]
pIC50 [1]: > 6.00
pIC50 [2]: > 6.00
pIC50 [3]: > 7.00

Cc1cc(Nc2cc(N3CCNCC3)nc(N[C@H]3CCN(C(=O)c4cccc(Cl)c4F)C3)n2)n[nH]1 [Compound 26]
pIC50 [1]: > 6.00
pIC50 [2]: > 6.00
pIC50 [3]: > 7.00

CCN1CCN(c2cc(Nc3cc(C)[nH]n3)nc(N[C@H]3CCN(C(=O)c4ccc(Cl)nc4Cl)C3)n2)CC1 [Compound 54]
pIC50 [1]: > 6.00
pIC50 [2]: > 6.00
pIC50 [3]: > 7.00

CCN1CCN(c2cc(Nc3cc(C)[nH]n3)nc(N(CC)C3CCN(C(=O)c4cccc(Cl)c4F)CC3)n2)CC1 [Compound 109]
pIC50 [3]: > 7.00

Cc1cc(Nc2cc(N3CC[C@@H](N(C)C)C3)nc(N[C@H]3CCN(C(=O)c4cccc(Cl)c4F)C3)n2)n[nH]1 [Compound 20]
pIC50 [3]: > 7.00

CCN1CCN(c2cc(Nc3cc(C)[nH]n3)nc(NC3CCN(Cc4cccc(Cl)c4F)CC3)n2)CC1 [Compound 88]
pIC50 [1]: > 6.00
pIC50 [2]: > 6.00
pIC50 [3]: > 7.00

Cc1cc(Nc2nccs2)nc(NC2CCN(Cc3cccc(Cl)c3F)CC2)n1 [Compound 116]
pIC50 [3]: > 7.00

CCN1CCN(c2cc(Nc3cc(C)[nH]n3)nc(N[C@H]3CCN(C(=O)c4ccc(Cl)c(C)c4)C3)n2)CC1 [Compound 33]
pIC50 [3]: > 7.00

Cc1cc(Nc2cc(N3CCN(C)CC3)nc(N[C@H]3CCN(Cc4cccc(Cl)c4F)C3)n2)n[nH]1 [Compound 30]
pIC50 [3]: > 7.00

CCN1CCN(c2cc(Nc3cc(C)[nH]n3)nc(N[C@H]3CCN(S(=O)(=O)c4ccc(Cl)cc4Cl)C3)n2)CC1 [Compound 63]
pIC50 [1]: > 6.00
pIC50 [2]: > 6.00
pIC50 [3]: > 7.00

Cc1cc(Nc2ccnc(NC3CCN(C(=O)c4cccc(F)c4F)CC3)n2)n[nH]1 [Compound 113]
pIC50 [3]: > 7.00

CCN1CCN(c2cc(Nc3cc(C)nn3C(=O)C(C)C)nc(NC3CCN(C(=O)c4cccc(Cl)c4F)CC3)n2)CC1 [Compound 124]
pIC50 [1]: > 6.00
pIC50 [2]: > 6.00

Cc1cc(Nc2cc(C)[nH]n2)nc(NC2CCN(C(=O)c3cccc(F)c3F)CC2)n1 [Compound 114]
pIC50 [3]: > 7.00

CCN1CCN(c2cc(Nc3cc(C)[nH]n3)nc(N[C@H]3CCN(C(=O)c4ccc(Cl)cc4C)C3)n2)CC1 [Compound 34]
pIC50 [3]: > 7.00

Cc1cc(Nc2cc(N(C)CCN(C)C)nc(NC3CCN(C(=O)c4cccc(Cl)c4F)CC3)n2)n[nH]1 [Compound 95]
pIC50 [1]: > 6.00
pIC50 [2]: > 6.00
pIC50 [3]: > 7.00

CCN1CCN(c2cc(Nc3cc(C)[nH]n3)nc(N[C@H]3CCN(C(=O)c4cc(F)c(Cl)cc4F)C3)n2)CC1 [Compound 43]
pIC50 [1]: > 6.00
pIC50 [2]: > 6.00
pIC50 [3]: > 7.00

CCN1CCN(c2cc(Nc3cc(C)[nH]n3)nc(N[C@H]3CCN(C(=O)c4ccc(Cl)cc4Cl)C3)n2)CC1 [Compound 32]
pIC50 [1]: > 6.00
pIC50 [2]: > 6.00
pIC50 [3]: > 7.00

Cc1cc(Nc2cc(C)[nH]n2)nc(NC2CCN(C(=O)c3cccc(Cl)c3Cl)CC2)n1 [Compound 121]
pIC50 [3]: > 7.00

COC1CCN(c2cc(Nc3cc(C)[nH]n3)nc(N[C@H]3CCN(C(=O)c4cccc(Cl)c4F)C3)n2)CC1 [Compound 28]
pIC50 [3]: > 7.00

Cc1cc(Nc2cc(N3CC[C@@H](N(C)C)C3)nc(N[C@H]3CCN(C(=O)c4ccc(Cl)cc4F)C3)n2)n[nH]1 [Compound 18]
pIC50 [1]: > 6.00
pIC50 [2]: > 6.00

Cc1cc(Nc2cc(C)[nH]n2)nc(NC2CCN(C(=O)c3cccc(Cl)c3F)CC2)n1 [Compound 120]
pIC50 [3]: > 7.00

CCOC(=O)c1cnc(Nc2cc(N3CCN(C)CC3)nc(N[C@H]3CCN(C(=O)c4ccc(Cl)cc4F)C3)n2)s1 [Compound 2]
pIC50 [2]: > 6.00
pIC50 [3]: > 7.00

CCN1CCN(c2cc(Nc3cc(C)[nH]n3)nc(N[C@H]3CCN(C(=O)c4ccc(Cl)cc4)C3)n2)CC1 [Compound 29]
pIC50 [3]: > 7.00

Cc1cc(Nc2ccnc(NC3CCN(Cc4cccc(Cl)c4F)CC3)n2)n[nH]1 [Compound 110]
pIC50 [3]: > 7.00
